Measurements published in patent publication US20230090255A1, “MAGL INHIBITOR, PREPARATION METHOD THEREFOR AND USE THEREOF” (LUNAN PHARMACEUTICAL GROUP CORPORATION, priority 2019, published 2023).

Tests used:
[1] = system: mice with inflammatory pain; assay: Pain threshold of mice with inflammatory pain (complete Freund's adjuvant); type: in vivo, SD mice; details: for Pain threshold: complete Freund's adjuvant paw model; for pain threshold of the mice with inflammatory pain, in words: compared with the model group
Description: […] (180±20) g were injected with a complete Freund’s adjuvant (50 µL/piece) at the right rear plantar of mice, and mice in the control group were injected with the corresponding volume of 0.5% sodium carboxymethylcellulose to establish a paw edema inflammatory pain model. After modeling, the mice were administered for 7 d continuously, and administered intragastrically once per day. Pain thresholds (s) of the mice were respectively determined on the 1st, 3rd and 7th day before administration and after modeling at different periods of time.
Grouping and administration were the same as those of Example 40.

[2] = system: reserpine-induced mice migraine; assay: Reserpine-induced mice migraine; type: in vivo, ICR mice; details: for Blood coagulation time: reserpine 0.2 mg/kg sc mice, 1 h after final administration; for brain tissue 5-HT / Times of tail suspension (struggling times within 2 min): reserpine mice; for Times of tail suspension (struggling times within 2 min): 9th day; for blood coagulation time, in words / level of 5-HT in the brain tissue, in words / times of the tail suspension activity, in words: compared with the model group
Description: The mice in the blank control group and model group were administered intragastrically via a solvent from the 5th day after modeling, and the rest groups of mice were respectively administered corresponding medicaments and doses for intragastric administration for 10 consecutive days; 1 h later after the final administration, the mice were weighed; blood was taken at inner canthus to detect blood coagulation time; whole blood was taken, and cerebrum was taken on an ice and preserved at -20° C. for the subsequent experiment.
Behavioral test: tail suspension activity was performed; the position 1 cm away from the tail of the mice was glued by an adhesive tape on the 9th day of the test, and the adhesive tape was penetrated by a steel needle, and hung in a dark box such that the mice were hung upside down; then the mice struggling times (total number of overturning from hanging) within 2 min were observed.
The mice were weighed 1 h later after the final administration; blood of inner canthus was taken via a capillary to detect the blood coagulation time.
Blood was taken to detect the content of 5-HT in serum via high-performance liquid chromatography. Cerebrum was taken on an ice and precooled and cleaned slightly with 0.5% sodium carboxymethylcellulose, and then sucked dry with a filter paper, and placed into a cryogenic tube, and preserved at -20° C. for further use, then the content of 5-HT in brain tissues was detected by high performance liquid chromatography.
5-HT test method: a sample was precipitated with 10% perchloric acid solution according to 1:1, and then centrifuged to take supernatant for test. Chromatographic conditions: the chromatographic column is a SHIMADZU VP-ODS C18 column (250*4.6 mm, 5 um), the mobile phase is a methanol-0.01 mol/L potassium acetate buffer solution (10:90, V/V, PH is adjusted to 4.00 with 0.2 mol/L citric acid) for gradient elution; the column temperature is 25° C., flow rate is 1.00 ml/min and test wavelength is 275 nm.

ulcerative colitis mice = assay: Mice ulcerative colitis (DSS); type: in vivo, BALB/c mice; details: for Total times of hematochezia within the four periods / Colon length / IL-1 content: DSS mice; for Colon length: four periods; for IL-1 content: serum, ELISA; for IL-1 content, in words / colon length, in words / total times of hematochezia, in words: compared with the model group
Description: Healthy male SPF-level BALB/c mice (8-week old and body mass: (20±2) g).
Modeling: the mice were randomly divided into […] at the end of the quarantine, 10 pieces for each group. The mice in the normal group drank normal water freely, and the rest groups of mice drank 1.0%-1.5% DSS solution freely for modeling, 7 d later after modeling, the mice in the modeling group drank normal water freely for 7 d, and 14 d served as a modeling period for four continuous periods, and the mice in the modeling group were administered at the same time.
End point of the experiment: experimental administration was performed for four periods, and dissection was performed on the 3rd and 4th day of the recovery period of the 4th period.
Test indicators: the mice were weighed twice a week after the beginning of the administration; diarrhea and hematochezia of the mice were observed, and times of hematochezia were recorded.
At the end of the experiment, the mice were dissected and weighed, and narcotized to take blood, then serum was preserved at -80° C. Spleen was taken and weighed to calculate the spleen index. The content of IL-1β in serum was detected via ELISA. Colorectum was cut and taken to measure the length of colorectum, then immobilized by formaldehyde and dyed by HE to detect the pathological change.

[3] = high dose 30 mg/kg ig once per day, 0 d
[4] = high dose 30 mg/kg ig once per day, 1 d
[5] = high dose 30 mg/kg ig once per day, 3 d
[6] = high dose 30 mg/kg ig once per day, 7 d
[7] = low dose 7.5 mg/kg ig once per day, 0 d
[8] = low dose 7.5 mg/kg ig once per day, 1 d
[9] = low dose 7.5 mg/kg ig once per day, 3 d
[10] = low dose 7.5 mg/kg ig once per day, 7 d
[11] = middle dose 15 mg/kg ig once per day, 0 d
[12] = middle dose 15 mg/kg ig once per day, 1 d
[13] = middle dose 15 mg/kg ig once per day, 3 d
[14] = middle dose 15 mg/kg ig once per day, 7 d

Structure (SMILES)	Pain threshold [1, 3] [s]	Pain threshold [1, 4]	Pain threshold [1, 5]	Pain threshold [1, 6]	Pain threshold [1, 7] [s]	Pain threshold [1, 8]	Pain threshold [1, 9]	Pain threshold [1, 10]	Pain threshold [1, 11] [s]	Pain threshold [1, 12]	Pain threshold [1, 13]	Pain threshold [1, 14]	Blood coagulation time ([2]; high dose 30 mg/kg ig 10 d) [S]	Blood coagulation time ([2]; low dose 7.5 mg/kg ig 10 d) [S]	Blood coagulation time ([2]; middle dose 15 mg/kg ig 10 d) [S]	brain tissue 5-HT ([2]; high dose 30 mg/kg ig 10 d) [nmol/g]	Times of tail suspension (struggling times within 2 min) ([2]; high dose 30 mg/kg ig)	brain tissue 5-HT ([2]; low dose 7.5 mg/kg ig 10 d) [nmol/g]	Times of tail suspension (struggling times within 2 min) ([2]; low dose 7.5 mg/kg ig)	brain tissue 5-HT ([2]; middle dose 15 mg/kg ig 10 d) [nmol/g]	other results
O=C(Nc1ccc(Cl)cc1)C1CCN(C(=O)c2ccc(O)cc2)CC1 [MAGLZ-II-10]	12.93 ± 2.26	5.67 ± 0.93 s	7.95 ± 0.66 s	8.93 ± 0.61 s	12.71 ± 2.47	5.59 ± 0.89 s	7.15 ± 0.59 s	8.33 ± 0.57 s	12.77 ± 2.48	5.62 ± 0.84 s	7.18 ± 0.55 s	8.36 ± 0.59 s	148.00±30.23	113.25±23.31	125.25±19.31	0.90 ± 0.21	11.63±1.85	0.85 ± 0.20	9.25±2.66	1.05 ± 0.14	Times of tail suspension (struggling times within 2 min) ([2]; middle dose 15 mg/kg ig): 10.63±1.19; Total times of hematochezia within the four periods (ulcerative colitis mice; high dose 30 mg/kg ig): 35.15±4.52; Colon length (ulcerative colitis mice; high dose 30 mg/kg ig): 6.35±0.61 cm; IL-1 content (ulcerative colitis mice; high dose 30 mg/kg ig): 47.25 ± 6.37 pg/mL; Total times of hematochezia within the four periods (ulcerative colitis mice; low dose 7.5 mg/kg ig): 38.40±5.02; Colon length (ulcerative colitis mice; low dose 7.5 mg/kg ig): 5.92±0.66 cm; IL-1 content (ulcerative colitis mice; low dose 7.5 mg/kg ig): 51.81 ± 7.86 pg/mL; Total times of hematochezia within the four periods (ulcerative colitis mice; middle dose 15 mg/kg ig): 38.20±7.83; Colon length (ulcerative colitis mice; middle dose 15 mg/kg ig): 5.72±0.60 cm; IL-1 content (ulcerative colitis mice; middle dose 15 mg/kg ig): 50.83 ± 7.79 pg/mL
O=C(Nc1cccc(Cl)c1)C1CCN(C(=O)c2cc(O)ccc2F)CC1 [MAGLZ-II-11 (a)]	12.97 ± 2.32	7.83±1.01^∗∗∗ s	9.55±1.58^∗∗∗ s	11.00±161.00^∗∗∗ s	12.96 ± 2.44	7.38±1.19^∗∗∗ s	8.87±0.74^∗∗∗ s	9.91±1.05^∗∗∗ s	13.03 ± 2.35	7.58±0.84^∗∗∗ s	9.30±0.75^∗∗∗ s	10.66±1.30^∗∗∗ s	300.63±45.26	136.75±33.22	256.88±42.93	2.97 ± 0.28	20.75±4.98	1.35 ± 0.38	16.13±3.68	1.86 ± 0.29	pain threshold of the mice with inflammatory pain, in words [1]: significantly extend; blood coagulation time, in words [2]: significantly extend; level of 5-HT in the brain tissue, in words [2]: significantly increase; times of the tail suspension activity, in words [2]: significantly increase; Times of tail suspension (struggling times within 2 min) ([2]; middle dose 15 mg/kg ig): 19.88 ± 4.09; Total times of hematochezia within the four periods (ulcerative colitis mice; high dose 30 mg/kg ig): 27.90±3.73; Colon length (ulcerative colitis mice; high dose 30 mg/kg ig): 7.56±0.74 cm; IL-1 content (ulcerative colitis mice; high dose 30 mg/kg ig): 38.61 ± 10.98 pg/mL; Total times of hematochezia within the four periods (ulcerative colitis mice; low dose 7.5 mg/kg ig): 28.80±7.04; Colon length (ulcerative colitis mice; low dose 7.5 mg/kg ig): 7.21±1.10 cm; IL-1 content (ulcerative colitis mice; low dose 7.5 mg/kg ig): 42.01 ± 13.92 pg/mL; Total times of hematochezia within the four periods (ulcerative colitis mice; middle dose 15 mg/kg ig): 29.10±7.14; Colon length (ulcerative colitis mice; middle dose 15 mg/kg ig): 7.20±0.97 cm; IL-1 content (ulcerative colitis mice; middle dose 15 mg/kg ig): 40.70 ± 8.50 pg/mL; IL-1 content, in words (ulcerative colitis mice): decrease; colon length, in words (ulcerative colitis mice): significantly increase; total times of hematochezia, in words (ulcerative colitis mice): reduce
O=C(Nc1cccc(Cl)c1)C1CCN(C(=O)c2cccc(O)c2)CC1 [MAGLZ-II-11]	12.88 ± 2.27	7.99±0.90^∗∗∗ s	9.88±1.34^∗∗∗ s	11.26±1.82^∗∗∗ s	12.94 ± 2.41	7.55±1.29^∗∗∗ s	9.00±0.73^∗∗∗ s	10.26±1.08^∗∗∗ s	12.80 ± 2.27	7.73±1.10^∗∗∗ s	9.47±0.79^∗∗∗ s	10.93±1.62^∗∗∗ s	336.88±33.09	222.5±35.52	326.88±45.9	3.63 ± 5.34	23.00±3.59	1.54 ± 0.27	14.13±1.89	2.10 ± 0.22	pain threshold of the mice with inflammatory pain, in words [1]: significantly extend; blood coagulation time, in words [2]: significantly extend; level of 5-HT in the brain tissue, in words [2]: significantly increase; times of the tail suspension activity, in words [2]: significantly increase; Times of tail suspension (struggling times within 2 min) ([2]; middle dose 15 mg/kg ig): 16.13±1.73; Total times of hematochezia within the four periods (ulcerative colitis mice; high dose 30 mg/kg ig): 24.80±5.43; Colon length (ulcerative colitis mice; high dose 30 mg/kg ig): 7.68±0.75 cm; IL-1 content (ulcerative colitis mice; high dose 30 mg/kg ig): 33.83 ± 7.14 pg/mL; Total times of hematochezia within the four periods (ulcerative colitis mice; low dose 7.5 mg/kg ig): 32.00±4.94; Colon length (ulcerative colitis mice; low dose 7.5 mg/kg ig): 6.88±0.89 cm; IL-1 content (ulcerative colitis mice; low dose 7.5 mg/kg ig): 44.57 ± 10.32 pg/mL; Total times of hematochezia within the four periods (ulcerative colitis mice; middle dose 15 mg/kg ig): 27.20±5.39; Colon length (ulcerative colitis mice; middle dose 15 mg/kg ig): 7.26±0.67 cm; IL-1 content (ulcerative colitis mice; middle dose 15 mg/kg ig): 41.40 ± 9.50 pg/mL; IL-1 content, in words (ulcerative colitis mice): decrease; colon length, in words (ulcerative colitis mice): significantly increase; total times of hematochezia, in words (ulcerative colitis mice): reduce
